Broadly, the IC50 is the midpoint of a concentration-inhibition curve.

In ChEMBL document CHEMBL3393053, “Synthesis and biological evaluation of isoindoloisoquinolinone, pyroloisoquinolinone and benzoquinazolinone derivatives as poly(ADP-ribose) polymerase-1 inhibitors” (Bioorg Med Chem, 2015) one finds IC50, Activity and viability data, which are given here for three compounds.

Data set [1] addresses Poly [ADP-ribose] polymerase 1 (Homo sapiens, UniProt P09874). The data set is described as follows: Inhibition of PARP1 (unknown origin) in presence of NAD+ by homogenous fluorescence plate assay.
Data set [2] can be described thus: Antioxidant activity against H2O2-induced oxidative stress in chicken RBC assessed as superoxide dismutase activity by measuring pyrogallol oxidization per mg protein pre-incubated at 25 uM followed by H2O2 addition by UV spectroscopy (reference value: 11.32 +/- 1.96 pyrogallol oxidized/min/mg of protein). The class given is functional, Gallus gallus, Erythrocyte.

A short description of data set [3]: Antioxidant activity against H2O2-induced oxidative stress in chicken RBC assessed as superoxide dismutase activity by measuring pyrogallol oxidization per mg protein pre-incubated at 100 uM followed by H2O2 addition by UV spectroscopy (reference value: 11.32 +/- 1.96 pyrogallol oxidized/min/mg of protein). The class given is functional, Gallus gallus, Erythrocyte.

Data set [4] has as its system Erythrocyte. The data set is described as follows: Cytoprotective activity against H2O2-induced genomic DNA damage in chicken RBC assessed as DNA level in comet head region pre-incubated at 100 uM followed by H2O2 addition by single cell alkaline gel electrophoresis and fluorescent microscopy based comet assay (reference value: 52.23 +/- 3.98%). The class given is functional, Gallus gallus.

Data set [5] can be described thus: Antioxidant activity against H2O2-induced oxidative stress in chicken RBC assessed as catalase activity by measuring H2O2 utilization per mg protein pre-incubated at 75 uM followed by H2O2 addition by UV spectroscopy (reference value: 15.97 +/- 2.12 nmol of H2O2 utilized/min/mg of protein). The class given is functional, Gallus gallus, Erythrocyte.
Data set [6] can be described thus: Antioxidant activity against H2O2-induced oxidative stress in chicken RBC assessed as lipid peroxidation level by measuring malondialdehyde formation per mg protein pre-incubated at 25 uM followed by H2O2 addition by UV spectroscopy (reference value: 84.32 +/- 12.04 nmol malondialdehyde formed/mg protein). The class given is functional, Gallus gallus, Erythrocyte.

Data set [7] can be described thus: Antioxidant activity against H2O2-induced oxidative stress in chicken RBC assessed as superoxide dismutase activity by measuring pyrogallol oxidization per mg protein pre-incubated at 50 uM followed by H2O2 addition by UV spectroscopy (reference value: 11.32 +/- 1.96 pyrogallol oxidized/min/mg of protein). It is filed as functional, Gallus gallus, Erythrocyte.

Data set [8] is described as follows: Cytoprotective activity against H2O2-induced cytotoxicity in chicken RBC assessed as cell viability pre-incubated at 100 uM followed by H2O2 addition by acridine orange and ethidium bromide staining method (reference value: 41 +/- 2.08%). It is filed as functional. The following applies: Gallus gallus, Erythrocyte; read-out: Activity.
Data set [9] in a line: Antioxidant activity against H2O2-induced oxidative stress in chicken RBC assessed as lipid peroxidation level by measuring malondialdehyde formation per mg protein pre-incubated at 100 uM followed by H2O2 addition by UV spectroscopy (reference value: 84.32 +/- 12.04 nmol malondialdehyde formed/mg protein). The class given is functional, Gallus gallus, Erythrocyte.
Data set [10] in a line: Toxicity against chicken RBC assessed as effect on cell viability at 25 to 100 uM by acridine orange and ethidium bromide staining method. The class given is cell-based, Gallus gallus. Conditions: erythrocyte.
The nature of data set [11]: Antioxidant activity against H2O2-induced oxidative stress in chicken RBC assessed as catalase activity by measuring H2O2 utilization per mg protein pre-incubated at 100 uM followed by H2O2 addition by UV spectroscopy (reference value: 15.97 +/- 2.12 nmol of H2O2 utilized/min/mg of protein). The class given is functional, Gallus gallus, Erythrocyte.
In data set [12] the test system is Erythrocyte. The data set is described as follows: Cytoprotective activity against H2O2-induced genomic DNA damage in chicken RBC assessed as DNA level in comet tail region pre-incubated at 100 uM followed by H2O2 addition by single cell alkaline gel electrophoresis and fluorescent microscopy based comet assay (reference value: 45.78 +/- 3.24%). The class given is functional, Gallus gallus.

A short description of data set [13]: Antioxidant activity against H2O2-induced oxidative stress in chicken RBC assessed as superoxide dismutase activity by measuring pyrogallol oxidization per mg protein pre-incubated at 75 uM followed by H2O2 addition by UV spectroscopy (reference value: 11.32 +/- 1.96 pyrogallol oxidized/min/mg of protein). It is filed as functional, Gallus gallus, Erythrocyte.

Data set [14] in a line: Antioxidant activity against H2O2-induced oxidative stress in chicken RBC assessed as catalase activity by measuring H2O2 utilization per mg protein pre-incubated at 50 uM followed by H2O2 addition by UV spectroscopy (reference value: 15.97 +/- 2.12 nmol of H2O2 utilized/min/mg of protein). The class given is functional, Gallus gallus, Erythrocyte.
Data set [15] in a line: Antioxidant activity against H2O2-induced oxidative stress in chicken RBC assessed as lipid peroxidation level by measuring malondialdehyde formation per mg protein pre-incubated at 75 uM followed by H2O2 addition by UV spectroscopy (reference value: 84.32 +/- 12.04 nmol malondialdehyde formed/mg protein). It is filed as functional, Gallus gallus, Erythrocyte.
Data set [16] in a line: Antioxidant activity against H2O2-induced oxidative stress in chicken RBC assessed as catalase activity by measuring H2O2 utilization per mg protein pre-incubated at 25 uM followed by H2O2 addition by UV spectroscopy (reference value: 15.97 +/- 2.12 nmol of H2O2 utilized/min/mg of protein). The class given is functional, Gallus gallus, Erythrocyte.
A short description of data set [17]: Antioxidant activity against H2O2-induced oxidative stress in chicken RBC assessed as lipid peroxidation level by measuring malondialdehyde formation per mg protein pre-incubated at 50 uM followed by H2O2 addition by UV spectroscopy (reference value: 84.32 +/- 12.04 nmol malondialdehyde formed/mg protein). The class given is functional, Gallus gallus, Erythrocyte.

Chain of Poly [ADP-ribose] polymerase 1 (P09874 whole entry): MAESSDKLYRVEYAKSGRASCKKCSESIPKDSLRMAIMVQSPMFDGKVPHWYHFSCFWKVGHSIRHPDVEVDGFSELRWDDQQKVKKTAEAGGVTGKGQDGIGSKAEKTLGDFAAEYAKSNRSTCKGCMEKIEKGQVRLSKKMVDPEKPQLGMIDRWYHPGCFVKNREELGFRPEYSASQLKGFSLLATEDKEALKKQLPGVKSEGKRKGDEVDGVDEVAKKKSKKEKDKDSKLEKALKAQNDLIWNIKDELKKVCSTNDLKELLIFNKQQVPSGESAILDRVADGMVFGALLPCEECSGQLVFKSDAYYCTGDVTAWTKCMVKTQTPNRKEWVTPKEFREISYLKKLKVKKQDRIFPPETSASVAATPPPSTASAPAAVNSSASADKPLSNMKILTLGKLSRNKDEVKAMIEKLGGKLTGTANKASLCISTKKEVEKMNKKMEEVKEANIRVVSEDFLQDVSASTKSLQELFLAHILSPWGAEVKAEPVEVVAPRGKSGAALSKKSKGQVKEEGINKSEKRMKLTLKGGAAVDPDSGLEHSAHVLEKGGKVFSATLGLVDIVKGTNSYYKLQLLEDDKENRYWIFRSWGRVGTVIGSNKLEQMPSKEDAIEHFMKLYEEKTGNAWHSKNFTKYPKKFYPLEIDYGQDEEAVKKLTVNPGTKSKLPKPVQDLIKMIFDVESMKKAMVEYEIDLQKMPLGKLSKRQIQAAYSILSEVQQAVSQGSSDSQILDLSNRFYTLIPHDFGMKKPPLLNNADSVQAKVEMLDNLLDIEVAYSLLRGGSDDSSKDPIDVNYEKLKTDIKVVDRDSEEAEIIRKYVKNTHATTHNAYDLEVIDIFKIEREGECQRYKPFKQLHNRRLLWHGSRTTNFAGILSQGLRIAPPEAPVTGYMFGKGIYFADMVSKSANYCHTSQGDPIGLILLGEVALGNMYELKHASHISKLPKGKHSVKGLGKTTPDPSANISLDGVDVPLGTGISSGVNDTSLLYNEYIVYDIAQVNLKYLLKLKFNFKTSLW

Consider `O=C1NCCc2c(OCCCCN3CCCCC3)cccc21`, for which the 50% inhibitory concentration (IC50) in [1] was found to be 53.2 nM.

`O=C1c2ccccc2C2(O)c3ccc(Br)cc3CCN12` (stereo not drawn): the Activity in data set [2] stood at 12.8667 µmol/min; in data set [3], 21.58 µmol/min; in the data set with Erythrocyte [4], 94.32%; in data set [5], 56.05 nmol/min/mg; in data set [6], 70.74 nmol/mg protein; in data set [7], 14.05 µmol/min. Also, the Activity is 16.75 nmol/mg protein in [9]; “Non-toxic” in [10]; 65.007 nmol/min/mg protein in data set [11]; 4.55% in the data set on Erythrocyte [12]; 17.51 µmol/min in data set [13]; 51.14 nmol/min/mg in data set [14]. Moreover, the Activity in [15] is on record as 34.52 nmol/mg protein; in data set [16], 36.597 nmol/min/mg; in data set [17], 54.24 nmol/mg protein. The viability at 100 µM in data set [8] was 75.3%.

On to `COc1ccc2c(c1OC)CCN1C(=O)c3ccccc3C21O` (stereo not drawn), for which the Activity is 13.19 µmol/min in data set [2]; 18.13 µmol/min in data set [3]; 56.64% in the data set with Erythrocyte [4]; 16.46 nmol/min/mg in data set [5]; 53.65 nmol/mg protein in [6]; 15.96 µmol/min in data set [7]. In addition, the Activity was 48.32 nmol/mg protein in [9]; “Non-toxic” in data set [10]; 16.37 nmol/min/mg protein in data set [11]; 42.97% in the data set on Erythrocyte [12]; 15.54 µmol/min in data set [13]; 16.25 nmol/min/mg in [14]. Further, the Activity in [15] came to 41.21 nmol/mg protein; in data set [16], 15.31 nmol/min/mg; in data set [17], 46.37 nmol/mg protein. The viability at 100 µM in [8] was 65.6%.
